Assay: Inhibition of ABCG2 efflux pump in multi-drug resistance human HL-60 cells assessed as reversal of daunorubicin sensitivity

Q: For `CO[C@@H]1[C@H](N(C)C(=O)c2ccccc2)C[C@H]2O[C@]1(C)n1c3ccccc3c3c4c(c5c6ccccc6n2c5c31)C(=O)NC4` [PKC-412], which IC50 is on record?
A: 4.44 µM
